Measurements reported in patent US20200264182A1, “METHOD FOR DETECTING PROSTATE CANCER” (J-OIL MILLS, INC., priority 2017, published 2020).

What was measured:
[1] = FAC binding constant (Table 5 entry); conditions: Table 5: sugar chain having no fucose; at 25° C.
Procedure: (§1) Details of the FAC method are described in Patent Document 2 filed by some of the present applicants, for example.
(§2) Binding constants (at 25° C.) of PhoSL, SRL, NSL and LSL belonging to the fucose α1→6 specific lectin for various sugar chains are shown in Tables 2 to 5.

FAC binding constant = conditions: at 25° C.
Procedure: as §1, §2

[2] = sugar chain having fucose other than α1→6 fucose

## LSL: fucose α1→6 specific lectin that can be extracted from Lepista sordida, SEQ ID No. 3
[1]
  Binding constant for sugar chain No. 728: <1000 M⁻¹
FAC binding constant; Table 3: sugar chain having fucose other than α1→6 fucose
  Binding constant for sugar chain No. 728: <1000 M⁻¹
FAC binding constant; [2]
  Binding constant for sugar chain No. 419: <1000 M⁻¹
  Binding constant for sugar chain No. 420: <1000 M⁻¹
  Binding constant for sugar chain No. 718: <1000 M⁻¹
  Binding constant for sugar chain No. 719: <1000 M⁻¹
  Binding constant for sugar chain No. 720: <1000 M⁻¹
  Binding constant for sugar chain No. 721: <1000 M⁻¹
  Binding constant for sugar chain No. 722: <1000 M⁻¹
  Binding constant for sugar chain No. 723: <1000 M⁻¹
  Binding constant for sugar chain No. 726: <1000 M⁻¹
  Binding constant for sugar chain No. 727: <1000 M⁻¹
  Binding constant for sugar chain No. 729: <1000 M⁻¹
  Binding constant for sugar chain No. 730: <1000 M⁻¹
  Binding constant for sugar chain No. 731: <1000 M⁻¹
  Binding constant for sugar chain No. 739: <1000 M⁻¹
  Binding constant for sugar chain No. 909: <1000 M⁻¹
  Binding constant for sugar chain No. 910: <1000 M⁻¹
  Binding constant for sugar chain No. 931: <1000 M⁻¹
  Binding constant for sugar chain No. 932: <1000 M⁻¹
  Binding constant for sugar chain No. 933: <1000 M⁻¹
FAC binding constant; sugar chain having no fucose
  Binding constant for sugar chain No. 001: <1000 M⁻¹
  Binding constant for sugar chain No. 002: <1000 M⁻¹
  Binding constant for sugar chain No. 003: <1000 M⁻¹
  Binding constant for sugar chain No. 004: <1000 M⁻¹
  Binding constant for sugar chain No. 005: <1000 M⁻¹
  Binding constant for sugar chain No. 006: <1000 M⁻¹
  Binding constant for sugar chain No. 007: <1000 M⁻¹
  Binding constant for sugar chain No. 008: <1000 M⁻¹
  Binding constant for sugar chain No. 009: <1000 M⁻¹
  Binding constant for sugar chain No. 010: <1000 M⁻¹
  Binding constant for sugar chain No. 011: <1000 M⁻¹
  Binding constant for sugar chain No. 012: <1000 M⁻¹
  Binding constant for sugar chain No. 013: <1000 M⁻¹
  Binding constant for sugar chain No. 014: <1000 M⁻¹
  Binding constant for sugar chain No. 101: <1000 M⁻¹
  Binding constant for sugar chain No. 103: <1000 M⁻¹
  Binding constant for sugar chain No. 104: <1000 M⁻¹
  Binding constant for sugar chain No. 105: <1000 M⁻¹
  Binding constant for sugar chain No. 107: <1000 M⁻¹
  Binding constant for sugar chain No. 108: <1000 M⁻¹
  Binding constant for sugar chain No. 301: <1000 M⁻¹
  Binding constant for sugar chain No. 304: <1000 M⁻¹
  Binding constant for sugar chain No. 305: <1000 M⁻¹
  Binding constant for sugar chain No. 307: <1000 M⁻¹
  Binding constant for sugar chain No. 308: <1000 M⁻¹
  Binding constant for sugar chain No. 313: <1000 M⁻¹
  Binding constant for sugar chain No. 314: <1000 M⁻¹
  Binding constant for sugar chain No. 323: <1000 M⁻¹
  Binding constant for sugar chain No. 501: <1000 M⁻¹
  Binding constant for sugar chain No. 502: <1000 M⁻¹
  Binding constant for sugar chain No. 503: <1000 M⁻¹
  Binding constant for sugar chain No. 504: <1000 M⁻¹
  Binding constant for sugar chain No. 701: <1000 M⁻¹
  Binding constant for sugar chain No. 702: <1000 M⁻¹
  Binding constant for sugar chain No. 703: <1000 M⁻¹
  Binding constant for sugar chain No. 704: <1000 M⁻¹
  Binding constant for sugar chain No. 705: <1000 M⁻¹
  Binding constant for sugar chain No. 706: <1000 M⁻¹
  Binding constant for sugar chain No. 707: <1000 M⁻¹
  Binding constant for sugar chain No. 708: <1000 M⁻¹
  Binding constant for sugar chain No. 709: <1000 M⁻¹
  Binding constant for sugar chain No. 710: <1000 M⁻¹
  Binding constant for sugar chain No. 711: <1000 M⁻¹
  Binding constant for sugar chain No. 712: <1000 M⁻¹
  Binding constant for sugar chain No. 713: <1000 M⁻¹
  Binding constant for sugar chain No. 715: <1000 M⁻¹
  Binding constant for sugar chain No. 716: <1000 M⁻¹
  Binding constant for sugar chain No. 717: <1000 M⁻¹
  Binding constant for sugar chain No. 724: <1000 M⁻¹
  Binding constant for sugar chain No. 725: <1000 M⁻¹
  Binding constant for sugar chain No. 732: <1000 M⁻¹
  Binding constant for sugar chain No. 733: <1000 M⁻¹
  Binding constant for sugar chain No. 734: <1000 M⁻¹
  Binding constant for sugar chain No. 735: <1000 M⁻¹
  Binding constant for sugar chain No. 736: <1000 M⁻¹
  Binding constant for sugar chain No. 737: <1000 M⁻¹
  Binding constant for sugar chain No. 738: <1000 M⁻¹
  Binding constant for sugar chain No. 901: <1000 M⁻¹
  Binding constant for sugar chain No. 902: <1000 M⁻¹
  Binding constant for sugar chain No. 903: <1000 M⁻¹
  Binding constant for sugar chain No. 905: <1000 M⁻¹
  Binding constant for sugar chain No. 906: <1000 M⁻¹
  Binding constant for sugar chain No. 907: <1000 M⁻¹
FAC binding constant; sugar chain having α1→6 fucose
  Binding constant for sugar chain No. 015: 190000 M⁻¹
  Binding constant for sugar chain No. 201: 230000 M⁻¹
  Binding constant for sugar chain No. 202: 230000 M⁻¹
  Binding constant for sugar chain No. 203: 200000 M⁻¹
  Binding constant for sugar chain No. 401: 350000 M⁻¹
  Binding constant for sugar chain No. 402: 200000 M⁻¹
  Binding constant for sugar chain No. 403: 340000 M⁻¹
  Binding constant for sugar chain No. 404: 390000 M⁻¹
  Binding constant for sugar chain No. 405: 320000 M⁻¹
  Binding constant for sugar chain No. 406: 220000 M⁻¹
  Binding constant for sugar chain No. 407: 280000 M⁻¹
  Binding constant for sugar chain No. 410: 220000 M⁻¹
  Binding constant for sugar chain No. 413: 280000 M⁻¹
  Binding constant for sugar chain No. 418: 220000 M⁻¹
  Binding constant for sugar chain No. 601: 240000 M⁻¹
  Binding constant for sugar chain No. 602: 120000 M⁻¹
